Results taken from patent publication US20100316713A1, “PHARMACEUTICAL COMPOSITION” (priority 2007, published 2010).

Assay: stability of the drug substance in water
Type: physicochemical

CN1CCN(c2nc(C3=C(c4c[nH]c5ccccc45)C(=O)NC3=O)c3ccccc3n2)CC1 [3-(1.H.-indol-3-yl)-4-[2-(4-methyl-piperazin-1-yl)-quinazolin-4-yl]-pyrrole-2,5-dione]
water sensitivity (may convert to free base hydrate, solvate or amorphous form in the presence of ethanol and/or water): water sensitive | degradation in water (water, renders aqueous granulation difficult): high degradation
